The source of these data is patent publication US6387431B1, “Dicarboalkoxy dioxolanes as flavoring agent releasing compounds” (Givaudan SA, priority 2000, dated 2002).

Each structure is given as a SMILES string.

A short description of data set [1]: Stability (decomposition) in a still lemon beverage, hexane extraction and GC. Format: physicochemical. The note with it: for half life t½: 100 ppm, over 5 days, first order kinetic assumed. The protocol: The stability of compound 1 of Example 1 was tested in a still lemon beverage prepared by 1+5 dilution of lemon/lime-lemon beverage concentrate (210 g) with water ([…]). Formula of the lemon/lime-lemon beverage concentrate used: [table] Three 100 ml solutions containing each 100 ppm of the compound 1 were prepared and the decomposition of 1 was determined over a period of 5 days by extraction of 5 ml test solutions samples with hexane, spiked with 100 ppm of ethyl myristate. The extracts were analyzed by GC (Hewlett Packard 6890; column: DB-5, 30 m, 0.32 mm i.d.) and for each data point a mean value based on three measurements was calculated.

The conditions of data set [2]: aqueous solutions and acidic aqueous alcoholic and non-alcoholic beverages; cited from earlier work.

Take `CC(C)=CCCC(C)=CC1O[C@@H](C(=O)OC(C)C)[C@H](C(=O)OC(C)C)O1` (mixture of isomers) [compound 1, (E/Z)-(4R,5R)-2-(2,6-Dimethyl-hepta-1,5-dienyl)-[1,3]dioxolane-4,5-dicarboxylic acid diisopropylester]: in data set [1], the “half life t½” value was determined as 96 h. The molecule `CCOC(=O)[C@@H]1OC(C=C(C)CCC=C(C)C)O[C@H]1C(=O)OCC` (mixture of isomers) [compound 3, (E/Z)-(4R,5R)-2-(2,6-Dimethyl-hepta-1,5-dienyl)-[1,3]dioxolane-4,5-dicarboxylic acid diethylester] yielded a half life in data set [1] (determined as in Example 6) of 21 h. As to `CCCOC(=O)[C@@H]1OC(C=C(C)CCC=C(C)C)O[C@H]1C(=O)OCCC` (mixture of isomers) [compound 5, (E/Z)-(4R,5R)-2-(2,6-Dimethyl-hepta-1,5-dienyl)-[1,3]dioxolane-4,5-dicarboxylic acid dipropylester], in data set [1], the “half life t½” value came to 264 h. For `COC(C=C(C)CCC=C(C)C)OC` [citral dimethyl acetal], in data set [2], the hydrolysis result was “rapidly hydrolized”. Consider `CC(C)=CCC/C(C)=C/C1OCC(C)O1` (centres unmarked) [citral propylene glycol acetal], for which the hydrolysis entry in data set [2] was “rapidly hydrolized”.
